Measured values reported in article PMC4965013, “Open Source Drug Discovery with the Malaria Box Compound Collection for Neglected Diseases and Beyond” (PLoS Pathogens, 2016).
Like-named read-outs stand apart in the source and are kept apart here.

Tests used:
[1] = system: P. falciparum 3D7; experiment: [3H]-hypoxanthine growth inhibition, modified HCO3- or O2; type: cell-based; settings: for IC50: Plasmodium falciparum
[2] = system: P. falciparum; experiment: EC50 listed in S2 Table Metabolomics (used to set the concentration tested); type: cell-based; settings: Plasmodium falciparum; EC50 used for Factor_XEC50 in metabolomics; read-out: EC50_nM
[3] = system: P. falciparum 3D7 trophozoites; experiment: Metabolomic fingerprint profiling LC-MS; type: cell-based, Plasmodium falciparum; design: UDP-D-glucose / ADP-D-glucose: unit not given here; settings: for Acetyllysine / N-acetyl-L-ornithine / N-carbamoyl-L-aspartate / NADPH / dAMP / dCMP / dTDP / dTMP / dTTP / dihydroorotate / orotate / DLH / DLS/SDL/SID / PD / PEE / PVNF / 3-phosphoglycerate / ADP-D-glucose / ATP / CDP / D-sedoheptulose-1/7-phosphate / FAD / GMP / NAD+ / NADP+ / Octoluse Bisphosphate / Pyroglutamic acid / UDP-D-glucose / UDP-D-glucuronate / UDP-N-acetyl-glucosamine / UDP / UMP / UTP / a-ketoglutarate / citrate/isocitrate / cytidine / dATP / dGMP/AMP / fumarate / glucose-1/6-phosphate / glycerate / guanine / guanosine / hypoxanthine / indole / inosine / nicotinate / ornithine / phosphoenolpyruvate / pyruvate / ribose-phosphate / sarcosine/alanine / sn-glycerol-3-phosphate / succinate/methylmalonic acid / uridine / xanthosine: S2 Table Metabolomics; for Acetyllysine: metabolite Acetyllysine; for N-acetyl-L-ornithine: metabolite N-acetyl-L-ornithine; for N-carbamoyl-L-aspartate: metabolite N-carbamoyl-L-aspartate; for NADPH: metabolite NADPH; for dAMP: metabolite dAMP; for dCMP: metabolite dCMP; for dTDP: metabolite dTDP; for dTMP: metabolite dTMP; for dTTP: metabolite dTTP; for dihydroorotate: metabolite dihydroorotate; for orotate: metabolite orotate; for DLH: peptide DLH; for DLS/SDL/SID: peptide DLS/SDL/SID; for PD: peptide PD; for PEE: peptide PEE; for PVNF: peptide PVNF; for 3-phosphoglycerate: metabolite 3-phosphoglycerate; for ADP-D-glucose: metabolite ADP-D-glucose; for ATP: metabolite ATP; for CDP: metabolite CDP; for CDP / D-sedoheptulose-1/7-phosphate / GMP / Octoluse Bisphosphate / UDP / UMP / UTP / citrate/isocitrate / dGMP/AMP / fumarate / glucose-1/6-phosphate / glycerate / guanine / guanosine / inosine / pyruvate / sarcosine/alanine / succinate/methylmalonic acid / uridine / xanthosine: change in metabolite level after compound treatment; for D-sedoheptulose-1/7-phosphate: metabolite D-sedoheptulose-1/7-phosphate; for FAD: metabolite FAD; for GMP: metabolite GMP; for NAD+: metabolite NAD+; for NADP+: metabolite NADP+; for Octoluse Bisphosphate: metabolite Octoluse Bisphosphate; for Pyroglutamic acid: metabolite Pyroglutamic acid; for UDP-D-glucose: metabolite UDP-D-glucose; for UDP-D-glucuronate: metabolite UDP-D-glucuronate; for UDP-N-acetyl-glucosamine: metabolite UDP-N-acetyl-glucosamine; for UDP: metabolite UDP; for UMP: metabolite UMP; for UTP: metabolite UTP; for a-ketoglutarate: metabolite a-ketoglutarate; for citrate/isocitrate: metabolite citrate/isocitrate; for cytidine: metabolite cytidine; for dATP: metabolite dATP; for dGMP/AMP: metabolite dGMP/AMP; for fumarate: metabolite fumarate; for glucose-1/6-phosphate: metabolite glucose-1/6-phosphate; for glycerate: metabolite glycerate; for guanine: metabolite guanine; for guanosine: metabolite guanosine; for hypoxanthine: metabolite hypoxanthine; for indole: metabolite indole; for inosine: metabolite inosine; for 2_3-Diphosphoglyceric acid / 4-phosphopantothenate / 6-phospho-D-gluconate / FMN / IMP / Pyrophosphate / Sedoheptoluse bisphosphate / cyclic-AMP / glutathione disulfide / lactate / myo-inositol: metabolite level change after treatment; for nicotinate: metabolite nicotinate; for ornithine: metabolite ornithine; for phosphoenolpyruvate: metabolite phosphoenolpyruvate; for pyruvate: metabolite pyruvate; for ribose-phosphate: metabolite ribose-phosphate; for sarcosine/alanine: metabolite sarcosine/alanine; for sn-glycerol-3-phosphate: metabolite sn-glycerol-3-phosphate; for succinate/methylmalonic acid: metabolite succinate/methylmalonic acid; for uridine: metabolite uridine; for xanthosine: metabolite xanthosine

CCN(CC)CCNc1ncnc2c1[nH]c1ccc(Cl)cc12 [MMV396703]
fold change (IC50reduced/IC50normal) [1]: 2.6
IC50 ([1]; 3D7, read-out: P. falciparum 3D7 IC50 HCO3- (2g/L), standard media): 0.326 µM
IC50 ([1]; 3D7, HCO3- reduced media, read-out: P. falciparum 3D7 IC50 HCO3- reduced): 0.851 µM
EC50 [2]: 0.406 µM
Acetyllysine [3]: -0.2691
N-acetyl-L-ornithine [3]: -0.2168
N-carbamoyl-L-aspartate [3]: 1.148
NADPH [3]: -0.09375
dAMP [3]: 0.7031
dCMP [3]: -0.6066
dTDP [3]: 0.1301
dTMP [3]: 0.2768
dTTP [3]: -0.448
dihydroorotate [3]: 1.736
orotate [3]: -0.221
DLH [3]: -2.825
DLS/SDL/SID [3]: -3.008
PD [3]: -0.5054
PEE [3]: -0.1284
PVNF [3]: -2.309
3-phosphoglycerate [3]: -0.08336
ADP-D-glucose [3]: -0.05094
ATP [3]: -0.4333
CDP [3]: 0.1613
D-sedoheptulose-1/7-phosphate [3]: 0.02906
FAD [3]: -0.01537
GMP [3]: -0.5327
NAD+ [3]: 0.6915
NADP+ [3]: -0.1108
Octoluse Bisphosphate [3]: -0.5568
Pyroglutamic acid [3]: -0.07773
UDP-D-glucose [3]: 0.04104
UDP-D-glucuronate [3]: -0.19
UDP-N-acetyl-glucosamine [3]: 0.01931
UDP [3]: 0.1008
UMP [3]: -0.1897
UTP [3]: -0.3667
a-ketoglutarate [3]: -0.2121
citrate/isocitrate [3]: -0.02741
cytidine [3]: -0.169
dATP [3]: -0.3924
dGMP/AMP [3]: 0.4109
fumarate [3]: 0.899
glucose-1/6-phosphate [3]: 0.3195
glycerate [3]: 0.2766
guanine [3]: 0.5966
guanosine [3]: 0.5739
hypoxanthine [3]: -0.03794
indole [3]: -0.04008
inosine [3]: 0.01185
2_3-Diphosphoglyceric acid [3]: -0.2785
4-phosphopantothenate [3]: 0.1971
6-phospho-D-gluconate [3]: -0.09007
FMN [3]: -0.3587
IMP [3]: 0.3624
Pyrophosphate [3]: -0.1133
Sedoheptoluse bisphosphate [3]: 0.1128
cyclic-AMP [3]: -0.07748
glutathione disulfide [3]: -0.04771
lactate [3]: -0.382
myo-inositol [3]: -0.001865
nicotinate [3]: 0.1485
ornithine [3]: 0.2269
phosphoenolpyruvate [3]: -0.03548
pyruvate [3]: -0.182
ribose-phosphate [3]: -0.3286
sarcosine/alanine [3]: -0.1738
sn-glycerol-3-phosphate [3]: -0.2165
succinate/methylmalonic acid [3]: -0.02068
uridine [3]: -0.05174
xanthosine [3]: -0.494

Oc1ccccc1CNCC12CC3CC(CC(C3)C1)C2 [MMV020788]
fold change (IC50normal/ IC50hypoxia) [1]: 2.2
IC50 ([1]; 3D7, read-out: P. falciparum 3D7 IC50 1% O2, 1% O2 hypoxia): 0.063 µM
IC50 ([1]; 3D7, read-out: P. falciparum 3D7 IC50 5% O2): 0.136 µM
EC50 [2]: 0.0226 µM
Acetyllysine [3]: -2.885
N-acetyl-L-ornithine [3]: -2.954
N-carbamoyl-L-aspartate [3]: -1.526
NADPH [3]: 0.03625
dAMP [3]: 0.309
dCMP [3]: -0.3685
dTDP [3]: -0.06212
dTMP [3]: -0.1581
dTTP [3]: -0.254
dihydroorotate [3]: -1.002
orotate [3]: -1.435
DLH [3]: -2.982
DLS/SDL/SID [3]: -2.352
PD [3]: -3.15
PEE [3]: -2.856
PVNF [3]: -2.845
3-phosphoglycerate [3]: 0.739
ADP-D-glucose [3]: -0.1615
ATP [3]: -0.008574
CDP [3]: 0.1968
D-sedoheptulose-1/7-phosphate [3]: -0.6783
FAD [3]: -0.02526
GMP [3]: -0.06975
NAD+ [3]: -0.1588
NADP+ [3]: -0.008021
Octoluse Bisphosphate [3]: -0.4633
Pyroglutamic acid [3]: -0.07383
UDP-D-glucose [3]: 0.01367
UDP-D-glucuronate [3]: -0.09612
UDP-N-acetyl-glucosamine [3]: -0.01836
UDP [3]: -0.3321
UMP [3]: -0.241
UTP [3]: -0.2582
a-ketoglutarate [3]: -0.5092
citrate/isocitrate [3]: -0.2786
cytidine [3]: 0.02539
dATP [3]: -0.1887
dGMP/AMP [3]: 0.3187
fumarate [3]: -0.7339
glucose-1/6-phosphate [3]: -0.008522
glycerate [3]: -0.4973
guanine [3]: -0.3533
guanosine [3]: -0.149
hypoxanthine [3]: -0.5956
indole [3]: -0.4443
inosine [3]: -0.3499
2_3-Diphosphoglyceric acid [3]: 0.3339
4-phosphopantothenate [3]: -0.308
6-phospho-D-gluconate [3]: 0.001521
FMN [3]: -0.2331
IMP [3]: -0.5843
Pyrophosphate [3]: 0.1188
Sedoheptoluse bisphosphate [3]: -0.1032
cyclic-AMP [3]: -0.6828
glutathione disulfide [3]: -0.3605
lactate [3]: -0.4043
myo-inositol [3]: -0.5298
nicotinate [3]: -0.1476
ornithine [3]: -0.2765
phosphoenolpyruvate [3]: 0.5824
pyruvate [3]: 0.6752
ribose-phosphate [3]: 0.658
sarcosine/alanine [3]: -1.087
sn-glycerol-3-phosphate [3]: 0.6534
succinate/methylmalonic acid [3]: 0.06183
uridine [3]: -0.2427
xanthosine [3]: -0.4659
